Reference: patent US20080132531A1, “SYNERGISTIC COMBINATIONS OF N[…] OPIOID ANALGESICS” (Yaupon Therapeutics, Inc., priority 2005, published 2008)

Legend:
[1] = tested on: intact (unoperated) rats; assay: Ataxia, behavioral rating scale, intact rats; type: in vivo, Sprague Dawley rats; settings: pilot study
Method: (§1) Sprague Dawley (about 90 days old; 350 g) male rats were used (8 rats/drug/experimental group). R,S-norketamine, S-norketamine, R-norketamine (Yaupon Therapeutics Inc.) and R,S-ketamine (Sigma) were dissolved in saline and injected intraperitoneally (IP, 1 ml/kg). Each rat received four doses of a drug (1, 2, 4, 8 mg/kg; repeated block Latin square design; 48 h intervals). Saline served as control.
(§2) The behavioral effects of drugs were determined in intact (unoperated) rats. Locomotor activity was determined using the Opto-Varimex infrared photocell-based activity monitor (Columbus Instrument). All activities were scored during 5 min sessions, prior to and 15, 60 and 120 min after injection. All testing were conducted between 10:00-13:00. Assessments were performed in 48 h intervals. Ataxia was determined at 0, […] after injection. The modified behavioral scale [Sturgon et al., 1979] was used for quantification (Table 1).

[2] = tested on: neuropathic rats (sciatic nerve constriction), nerve-injured paw; assay: Sciatic nerve constriction model of peripheral neuropathy, mechanical (paw pressure) and thermal (plantar) hyperalgesia; type: in vivo, Sprague Dawley rats; settings: for ED50: Rattus norvegicus, read-out: ED50 (antinociceptive potency); for ED50 / ED50 (antinociceptive potency): from % MPE vs. log dose curves; for antinociception in response to mechanical and thermal noxious stimuli on the nerve-injured paw: 1, 2, 4, 8 mg/kg IP
Method: as §1
A sciatic nerve constriction model of peripheral neuropathy previously employed was used [Benett and Xie, 1988]. Briefly, under pentobarbital anesthesia (40 mg/kg, IP) the ligation of sciatic nerve and sham surgery were performed on the left and right hind paws, respectively. Proximal to the sciatic trifuracation, nerve (7 mm) was freed from adhering tissue and four loose ligatures were tied around nerve (1 mm apart) with 4.0 chromic gut, barely constricting the diameter of the nerve. The incision was closed in layers. […] No severe motor impairment was observed.
The analgesic properties of drugs were determined in neuropathic rats. Responsiveness to both mechanical and thermal noxious stimulations was determined in separate groups of rats. Rats were trained on three occasions before initiation of the study. Experiments were performed on days 7, 9, 11 and 14 of recovery from surgery (as this is the time of maximal hyperalgesia [Holtman et al., 2003]). Responses were assessed prior to (baseline, taken twice) and at 15-120 min after injection. The left and right paws were tested alternatively in each rat.
Mechanical hyperalgesia was measured using an increasing amount of weight to the paw [Randall and Selitto, 1957]. The hind paw was placed between a flat surface and a blunt pointer in the Basile Analgesimeter (UGO Basile) and increasing pressure (32 g/s) was applied to the dorsal side of the paw. Vocalization was used as end-point [vocalization threshold, VT (g)]. Cut-off at 300 g prevented tissue damage.
The thermal hyperalgesia was measured by plantar test which used a ramp heat stimulus [Hargreaves et al., 1988]. The radiant heat (60% intensity) was positioned under the glass floor directly beneath the plantar hind paw in Plantar Stimulator Analgesia Meter (IITC, Life Science). Latency of paw withdrawal from the heat source was measured [paw withdrawal threshold, PWT (s)]. A cut-off at 20 s prevented tissue damage.
All data were normalized for preinjection baseline values. Areas under the curves (AUC) were calculated for normalized data. Maximum possible effect was calculated as % MPE=(post drug response−baseline/cut off−baseline)×100. ED50 was calculated from % MPE vs. log dose curves. All data were presented as mean ±SEM of 8 rats. The statistical analysis was performed with use of one and two-way repeated measures analysis of variance (ANOVA), post hoc Student Newman Keulus (SNK), Dunnan and t tests.

[3] = Aun, 1999, cited from earlier work
[4] = tested on: rats; settings: intravenous or intraspinal; cited from earlier work
[5] = tested on: NMDA receptor; settings: Ebert et al., 1997; cited from earlier work
[6] = tested on: rat; assay: Analgesic dose of norketamine in the rat; type: in vivo
Method: An “optimal” dose is defined as a dose of an analgesic, when taken alone, is sufficient to provide analgesic relief. In the rat, for example, an optimal dose of norketamine is about 8 mg/kg intraperitoneally (IP). A “sub-optimal” dose is defined as about 1 to about 60% of the optimal dose used to induce analgesia; more preferably about 5% to about 40%, and even more preferably about 10% to about 20%. A “sub-analgesic” does is defined as a dose at which little to no analgesic effect is provided. For example, a sub-analgesic dose of norketamine is less than about 3 mg/kg. Typically, a sub-analgesic dose correlates with less than about 5 AUC units or less than about 5% MPE (maximum possible effect).

[7] = tested on: intact (unoperated) rats; assay: Locomotor activity in intact rats (Opto-Varimex activity monitor); type: in vivo, Sprague Dawley rats; settings: highest dose 8 mg/kg IP
Method: as §1, §2

[8] = tested on: Sprague-Dawley rats; assay: Tail-flick test (radiant thermal stimulus); type: in vivo; settings: for antinociception, drug alone, IP: morphine 2-10 mg/kg, S-norketamine 0.75-3 mg/kg; for antinociception, drug alone, IT: morphine 3-30 μg, S-norketamine 10-100 μg
Method: A dose response curve was generated by determining the analgesic effects of combining a constant dose of an opioid (e.g., morphine) along with an increasing dose of R,S-norketamine, Male and female Sprague-Dawley rats (n=8/sex) all with an approximate age of 85 to 90 days. Each rat should be weighed, prior to being subjected to any tests, on the day of the experiment. Experiments were performed in 72 hour intervals, and prior to the test, the rats were habituated for three days to handling and the tail-flick procedure without heat exposure. • 1 The tail-flick apparatus (IITC Model 33, Life Science, Woodland Hills, Calif.) is pre-warmed for at least 30 minutes. • 2 The intensity of the lamp is adjusted so that baseline tail-flick latency for the rats is equal to approximately 2.0 seconds. […] Tail-flick latency (“TFL”) is measured twice in an approximate 15 minute intervals and an average of the two times determines the baseline. • 8 Once the baseline value is determined, TFL is measured, following the injection of drugs, at times 15, 30, 60 and 120 minutes.
• Normalize data for baseline value (postinjection value at each time point−average preinjection baseline). • Calculate area under the curve (AUC0-120min) for normalized data. • Calculate maximum area under the curve (AUCmax), assuming 10 second response for each time point. • Calculate % MPE=(AUC0-120min)/(AUCmax)×100. • Post-injection thresholds are compared to the baseline threshold using paired t-test. • The difference between doses will be analyzed by 2 way RM ANOVA. • The difference between sex will be analyzed by 2 way RM ANOVA. • All data are presented as mean ±SEM of n rats.
• Normalized data (NOR): subtract average baseline from each value NOR=(post-injection TFL)−(pre-injection baseline) • 12 Percent maximum effect (MPE): • % MPE=(post-injection value−pre-injection baseline)/(cut-off−pre-injection baseline)×100% • 13 Area under the time action curve (AUC0-120 min) calculated by trapezoidal rule • Individual AUC0-120 min.=(average value over the time interval)×(time interval) • Total AUC0-120 min.: sum of individual AUC • Example: AUC0-120 min., % MPE=(15-0 min)×[(MPE0+MPE15)×½]+(30−15)×[(MPE30+MPE15)×½]
A study was undertaken to determine whether S-norketamine (“norKET”) enhances the analgesic effect of morphine (“MOR”). […] Saline (vehicle) served as a control. Responsiveness to thermal noxious stimuli was determined using the tail-flick assay (baseline tail-flick latency (TFL) ˜2-3 s; cut off TFL=10 s). TFL was determined at 0, 15, 30, 60, 90, and 120 min.
Male Sprague-Dawley rats, approximately 90 days old, weighting about 300 g were used. Intrathecal catheter: Chronic catheterization of the spinal subarachnoid space was performed according to Yaksh and Rudy (1976). Drugs: Morphine sulfate (Mallinckrodt) and S-norketamine hydrochloride (Yaupon Therapeutics, Inc.) were dissolved in saline. Saline served as control. Doses refer to salt forms.
Graded doses of morphine and S-norketamine alone as well as a fixed dose of morphine combined with various doses of S-norketamine were administered […] (IP) or intrathecally (IT) in volumes equal to 1 ml/kg and 10 μl, respectively. Doses were balanced by Latin square design: 2× (4×4). Injections were made at weekly intervals.
Tail flick latencies (TFL) were measured using a standard tail-flick apparatus (LifeScience). Preinjection baseline and cut-off times were equal to 2-3 s and 10 s, respectively. TFL was assessed twice prior to (baseline) and at fixed time points after injection. All data were normalized for baseline. The areas under the time action curves (AUC0-120 min) were calculated for normalized data. The percent of maximum effect was calculated as % MPE=[(TFL-baseline)/(10-baseline)×100] at each time point. Data are presented as mean ±SEM of (n) rats.

[9] = Plasma levels of S-norketamine versus antinociception (pilot study); type: in vivo; settings: after IP administration in rat
Method: Plasma concentration of S-norketamine 200-700 ng/ml was associated with the significant analgesic effect after IP administration in rat.

[10] = tested on: Sprague-Dawley rats; assay: Opioid tolerance development, tail-flick test; type: in vivo; settings: for effect on oxycodone tolerance development: S-norketamine given with oxycodone, IP
Method: A tail flick test as described above was administered intrapertoneally to eight Sprague-Dawley rats as described above. The * symbol denotes a statistically difference with oxycodone and norketamine combined versus the two drugs used alone. Data were analyzed with the SNK method, with P less than 0.05. […] A tail flick test as described above was administered intrapertoneally to eight Sprague-Dawley rats as described above. The * symbol denotes a difference with oxycodone used alone as compared to the combination of oxycodone with S norketameine and the +symbol denotes a difference from day 1. Data were analyzed with the SNK method, with P less than 0.05.

CNC1(c2ccccc2Cl)CCCCC1=O (racemic) [R,S-ketamine, 2-(2-chlorophenyl)-2-(methylamino)-cyclohexanone, reference compound]
ataxia [1]: marked ataxia
ED50 ([2]; nerve-injured paw, IP): 15.8 ± 0.38 mg/kg

CN[C@]1(c2ccccc2Cl)CCCCC1=O [S-ketamine, reference compound]
potency relative to R-ketamine [3]: twice as potent as R-ketamine

N[C@@]1(c2ccccc2Cl)CCCCC1=O [R-norketamine]
antinociception in response to mechanical and thermal noxious stimuli on the nerve-injured paw ([2]; nerve-injured paw): attenuated, in dose-related fashion
ED50 (antinociceptive potency) ([2]; nerve-injured paw, IP): 51.1 ± 0.54 mg/kg
antinociception on the control (sham-operated) paw ([2]; IP): Neither drug had effect

NC1(c2ccccc2Cl)CCCCC1=O (centres unmarked) [norketamine, 2-(2-chlorophenyl)-2-amino-cyclohexanone]
anesthetic and analgesic potency relative to ketamine ([3]; speculated): one third that of ketamine
adverse sequelae relative to an equal dose of ketamine [4]: fewer of the adverse sequelae
NMDA receptor binding relative to ketamine enantiomers [5]: less tightly than either S- or R-ketamine
sub-analgesic dose (little to no analgesic effect) ([6]; in vivo): less than 3 mg/kg
optimal dose (sufficient alone to provide analgesic relief) ([6]; intraperitoneally (IP)): about 8 mg/kg

NC1(c2ccccc2Cl)CCCCC1=O (racemic) [R,S-norketamine, 2-(2-chlorophenyl)-2-amino-cyclohexanone]
motor (depressive) / locomotor effect [7]: less pronounced
ataxia [1]: no ataxia
ED50 ([2]; nerve-injured paw, IP): 11.3 ± 0.23 mg/kg
antinociception in response to mechanical and thermal noxious stimuli on the nerve-injured paw ([2]; nerve-injured paw): dose-related antinociception
duration of antinociceptive effect ([2]; nerve-injured paw, IP): > 2 h
antinociception on the control (sham-operated) paw ([2]; IP): No antinociception

N[C@]1(c2ccccc2Cl)CCCCC1=O [S-norketamine]
motor (depressive) / locomotor effect [7]: less for S than R isomer
ability to enhance morphine analgesia compared with ketamine-morphine interaction ([8]; IP, comparison with Holtman et al., 2003): greater than that previously demonstrated for ketamine-morphine
antinociception, drug alone, IP ([8]; IP): did not produce an antinociceptive effect
antinociception, drug alone, IT [8]: did not produce an antinociceptive effect
potentiation of the antinociceptive effect of low dose morphine, IP ([8]; S-norketamine 0.75-3 mg/kg IP with morphine 3 mg/kg IP): dose-dependently potentiated
potentiation of the antinociceptive effect of low dose morphine, IT ([8]; S-norketamine 10-100 μg IT with morphine 0.5 μg IT): dose-dependently potentiated
ataxia [1]: no ataxia
plasma concentration associated with the significant analgesic effect [9]: 200 to 700 ng/mL
antinociception in response to mechanical and thermal noxious stimuli on the nerve-injured paw ([2]; nerve-injured paw): attenuated, in dose-related fashion
ED50 (antinociceptive potency) ([2]; nerve-injured paw, IP): 7.3 ± 0.18 mg/kg
antinociception on the control (sham-operated) paw ([2]; IP): Neither drug had effect
effect on morphine tolerance ([10]; S-norketamine given with morphine): reduction of morphine tolerance
effect on oxycodone tolerance development [10]: tolerance of oxycodone is inhibited
effect on oxycodone tolerance development ([10]; listed as S-norketamine HCl): attenuation of oxycodone tolerance development

CN1CC[C@]23c4c5ccc(O)c4O[C@H]2[C@@H](O)C=C[C@H]3[C@H]1C5 [Morphine, reference compound]
antinociception, drug alone, IP ([8]; IP): dose-related antinociception
antinociception, drug alone, IT [8]: dose-related antinociception
% MPE ([8]; morphine alone 30 μg IT): 60%
% MPE ([8]; morphine alone 10 mg/kg IP): 100%
